The subject of one assay is DLD-1. Nature of the assay: Cytotoxicity against human DLD1 cells by Alamar Blue dye assay. The class given is functional, cell-based.
In a further assay the test system is A549. The assay is described as follows: Cytotoxicity against human A549 cells by Alamar Blue dye assay. The class given is functional, cell-based. A general note: Alamar Blue is a resazurin reagent that responds to reducing activity.
Assay [1] can be described thus: Cytotoxicity against human WS1 cells by Alamar Blue dye assay. The class given is cell-based.

Usually IC50 stands for the point on the concentration scale where inhibition reaches its midpoint. A higher IC50 goes with lower potency.

Consider `C=C(C)[C@@H]1CC[C@]2(C(=O)OC[C@H]3COC(C)(C)O3)CC[C@]3(C)[C@H](CC[C@@H]4[C@@]5(C)CC[C@H](O)C(C)(C)[C@@H]5CC[C@]43C)[C@@H]12`, for which the IC50 stood at 96 µM with DLD-1, 30 µM with A549 and 43 µM in assay [1].
In the case of `C=C(C)[C@@H]1CC[C@]2(C(=O)OC[C@H]3COC(C)(C)O3)CC[C@]3(C)[C@H](CC[C@@H]4[C@@]5(C)CC[C@H](OC(C)=O)C(C)(C)[C@@H]5CC[C@]43C)[C@@H]12`, the half-maximal inhibitory concentration (IC50) (in the assay with DLD-1; in the assay with A549; in assay [1]) was more than 100 µM each time.
Turning to `C=C(C)[C@@H]1CC[C@]2(C(=O)OC[C@H](O)CO)CC[C@]3(C)[C@H](CC[C@@H]4[C@@]5(C)CC[C@H](O)C(C)(C)[C@@H]5CC[C@]43C)[C@@H]12`, the IC50 in the assay on DLD-1 stood at 23 µM; with A549, 16 µM; in assay [1], 13.7 µM.
Consider `C=C(C)[C@@H]1CC[C@]2(C(=O)OC[C@H](O)CO)CC[C@]3(C)[C@H](CC[C@@H]4[C@@]5(C)CC[C@H](OC(C)=O)C(C)(C)[C@@H]5CC[C@]43C)[C@@H]12`, for which the 50% inhibitory concentration (IC50) was 18 µM with DLD-1, 16.5 µM in the assay on A549 and 15 µM in assay [1].
For `C=C(C)[C@@H]1CC[C@]2(COC(=O)[C@H]3COC(C)(C)O3)CC[C@]3(C)[C@H](CC[C@@H]4[C@@]5(C)CC[C@H](OC(=O)[C@H]6COC(C)(C)O6)C(C)(C)[C@@H]5CC[C@]43C)[C@@H]12` the same measures were more than 100 µM, more than 100 µM and more than 100 µM.
For `C=C(C)[C@@H]1CC[C@]2(COC(=O)[C@H]3COC(C)(C)O3)CC[C@]3(C)[C@H](CC[C@@H]4[C@@]5(C)CC[C@H](OC(C)=O)C(C)(C)[C@@H]5CC[C@]43C)[C@@H]12` the same measures were more than 100 µM, more than 100 µM and more than 100 µM.
For `C=C(C)[C@@H]1CC[C@]2(COC(C)=O)CC[C@]3(C)[C@H](CC[C@@H]4[C@@]5(C)CC[C@H](OC(=O)[C@H]6COC(C)(C)O6)C(C)(C)[C@@H]5CC[C@]43C)[C@@H]12` the same measures were more than 100 µM, more than 100 µM and more than 100 µM.
For the compound `C=C(C)[C@@H]1CC[C@]2(COC(=O)[C@H](O)CO)CC[C@]3(C)[C@H](CC[C@@H]4[C@@]5(C)CC[C@H](OC(=O)[C@H](O)CO)C(C)(C)[C@@H]5CC[C@]43C)[C@@H]12`, the IC50 stood at 39 µM in the assay on DLD-1, 31 µM with A549 and 40 µM in assay [1].
For `C=C(C)[C@@H]1CC[C@]2(COC(=O)[C@H](O)CO)CC[C@]3(C)[C@H](CC[C@@H]4[C@@]5(C)CC[C@H](OC(C)=O)C(C)(C)[C@@H]5CC[C@]43C)[C@@H]12` the same measures were 16 µM, 16.3 µM and 16 µM.
For `C=C(C)[C@@H]1CC[C@]2(COC(C)=O)CC[C@]3(C)[C@H](CC[C@@H]4[C@@]5(C)CC[C@H](OC(=O)[C@H](O)CO)C(C)(C)[C@@H]5CC[C@]43C)[C@@H]12` the same measures were 16 µM, 15.5 µM and 15 µM.

The values are drawn from ChEMBL document CHEMBL2046319, “Synthesis and cytotoxicity of lupane-type triterpenoid glyceryl esters” (Bioorg Med Chem Lett, 2012).
